Experiments:
[1] = tested on: HT-29 human colon cancer cells; assay: HT-29 xenograft study in mice (Example 19); format: in vivo; conditions: 25 mg/kg intraperitoneally, q.d.x 5 for two weeks
Method: In order to evaluate the effectiveness of compound 1-1 against tumor cells in a living system, a xenograft study was performed in mice. 1×10^7 HT-29 human colon cancer cells were injected subcutaneously into 16 Nu/Nu athymic nude mice (Charles River Laboratories, Wilmington, Mass.). Tumor volume was measured according to the formula ((Width)^2*Length)/2. Tumors were allowed to grow to approximately 100 mm^3 in volume (Day 0), at which point mice were randomized to two groups: Eight mice were treated with 25 mg/kg compound 1-1, while the other eight were given an equal volume of drug vehicle. For this study, the drug vehicle used was 60% propylene glycol, 30% polyethylene glycol 300, 10% ethanol with 150 mg/mL 2-hydroxypropyl-beta-cyclodextrin. Each mouse received 0.1 mL of drug or vehicle intraperitoneally on a q.d.x 5 schedule for two weeks, with two days rest between cycles.

Axl kinase = target: T1, Axl kinase (Homo sapiens, UniProt P30530); assay: Axl kinase inhibition assay (Kinase-Glo); format: biochemical; conditions: 3 μM ATP
T1 construct: purchased BPS Bioscience Inc, San Diego Calif
T1 sequence (P30530 26-894): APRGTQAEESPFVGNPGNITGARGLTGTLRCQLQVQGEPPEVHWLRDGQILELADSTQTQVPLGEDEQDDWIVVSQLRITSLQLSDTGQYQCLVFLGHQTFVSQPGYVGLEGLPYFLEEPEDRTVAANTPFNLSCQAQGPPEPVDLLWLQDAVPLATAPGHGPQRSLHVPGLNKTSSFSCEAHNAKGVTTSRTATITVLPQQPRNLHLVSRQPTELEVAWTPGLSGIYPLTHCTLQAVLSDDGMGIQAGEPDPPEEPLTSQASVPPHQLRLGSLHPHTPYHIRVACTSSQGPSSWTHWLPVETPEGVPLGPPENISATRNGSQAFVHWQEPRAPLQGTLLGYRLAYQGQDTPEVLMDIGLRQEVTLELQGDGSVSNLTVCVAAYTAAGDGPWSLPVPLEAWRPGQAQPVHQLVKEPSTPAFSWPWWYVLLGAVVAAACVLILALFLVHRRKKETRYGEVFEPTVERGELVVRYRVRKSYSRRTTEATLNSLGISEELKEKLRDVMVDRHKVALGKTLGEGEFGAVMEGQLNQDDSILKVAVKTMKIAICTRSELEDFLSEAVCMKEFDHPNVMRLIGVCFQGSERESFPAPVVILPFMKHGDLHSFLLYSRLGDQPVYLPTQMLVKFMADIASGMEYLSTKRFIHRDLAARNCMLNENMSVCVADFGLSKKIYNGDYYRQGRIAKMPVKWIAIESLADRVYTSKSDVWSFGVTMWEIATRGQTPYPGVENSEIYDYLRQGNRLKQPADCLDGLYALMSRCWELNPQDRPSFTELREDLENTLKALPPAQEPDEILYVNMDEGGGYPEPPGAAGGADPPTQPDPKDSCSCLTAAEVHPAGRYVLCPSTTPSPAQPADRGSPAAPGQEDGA
Method: One illustrative manner in which Axl kinase activity can be determined is by quantifying the phosphorylation of a known Axl substrate in an in vitro assay. In this assay kinase activity is determined by quantifying the amount of ATP remaining in solution following the kinase reaction by measuring the relative light units (RLU) produced by luciferase using a luminometer. Percent activity was determined for individual compounds by comparing luminometer readings of drug-treated reactions to controls containing no drug (RLUNO Inhib) and no […] enzyme (RLUNO Kinase) in the following equation: […]
In a 50 μl reaction, 200 ng/μl of Axl kinase (BPS Bioscience Inc, San Diego Calif.) was incubated at 30° C. for two hours with shaking (360 rpm) with 10 μg/ml Poly (Glu:Tyr) substrate (BPS Bioscience Inc, Calif.), 3 μM ATP. (Invitrogen, Carlsbad, Calif.) and kinase reaction buffer (40 mM MOPS, 75 mM MgCl2 and 0.1 mM EDTA). The value of 3 μM ATP was determined to be the Km (concentration at which the enzyme is working at 50% maximum velocity) for the amount of enzyme used in this assay. […] Kinase activity is determined by quantifying the amount of ATP remaining in solution following the kinase reaction by measuring the relative light units (RLU) produced by luciferase using a luminometer (Thermo Electron Corporation, Vantaa, Finland).

MiaPaCa-2 (pancreas) = assay: in vitro cytotoxicity assay (Cell-Titer-Glo), MiaPaCa-2; format: cell-based; conditions: Homo sapiens, MIA PaCa-2; Table 10; 96 hours; read-out: IC50 MiaPaCa-2 (inhibit cell growth to 50% of untreated)
[2] = tested on: A549 non-small cell lung carcinoma cells; assay: cell cycle distribution by DNA content flow cytometry (Guava); format: cell-based; conditions: synchronized A549 cells, 24 hours post-release
Method: It is expected that a specific Aurora-2 kinase inhibitor would cause only brief cell cycle arrest at G2/M, which should be immediately followed by apoptosis. This is in contrast to Aurora-1 kinase inhibitors, which tend to cause a prolonged cell cycle arrest. compound 2-3 was examined for its ability to cause cell cycle arrest and apoptosis. Briefly, A549 non-small cell lung carcinoma cells were plated at 50000 cells/mL in a 24-well plate. Cells were synchronized with 4 μg/mL Aphidicolin for 16 hours, followed by a 24 hour synchronization with 1 μg/mL Hoechst 33342, to arrest the cells at the G2/M boundary. Cells were then released into regular medium with or without SGI-498 and allowed to grow for an additional 24 hours. This synchronization was necessary for visualization of the brief G2/M arrest caused by compound 2-3. Following this incubation, cells were stained for DNA content analysis using the Guava Cell Cycle Assay Kit (Guava Technologies, Hayward Calif.), according to manufacturer instructions. Cells were then analyzed with the Guava EasyCyte benchtop flow cytometer using the Guava Cell Cycle analysis protocol. Cells were gated according to DNA content into G0/G1, S, G2/M or apoptotic (sub-G1) categories.

Panc-1 cells = assay: hollow fiber xenograft model (MTT), Panc-1; format: in vivo, athymic nude mice; conditions: Panc-1 fibers implanted SC
Method: (§1) Compound 2-3 was tested against three tumor types in athymic nude mice using the hollow fiber xenograft model. After incubation and growth overnight, drug-permeable fibers containing tumor cells were surgically implanted either intraperitoneally (IP) or subcutaneously (SC) and allowed to grow for 24-hours. After treatment with compound 2-3, fibers were removed and tumor cell growth was measured using the MTT assay. A549, Panc-1 or HT-29 cells were injected into separate fibers and each mouse received a fiber containing each cell line both SC and IP totaling six fibers per mouse.

DU145 carcinoma = assay: DU145 prostate cancer xenograft; format: in vivo
Method: In this study, DU145 carcinoma model was used to evaluate the anti-tumor efficacy of compound 2-3. The murine xenograft model was established by inoculating 2×10^6 cells into each Balb/c nude mouse via s.c. injection. When the average tumor size reached ˜100 mm^3, the mice were randomly divided into different experimental groups based on tumor size. Subcutaneous administration of compound 2-3 was conducted via an Alzet osmotic pump. On day 30 a second cycle of dosing was initiated.

HT-29 cells = assay: hollow fiber xenograft model (MTT), HT-29; format: in vivo, athymic nude mice; conditions: HT-29 fibers implanted IP
Method: as §1

Compound	toxicity through the duration of the study [1]	tumor growth inhibition in vivo [1]	IC50 (Axl kinase) [µM]	IC50 (MiaPaCa-2 (pancreas)) [µM]	cell cycle arrest and apoptosis [2]	tumor cell growth in fibers (Panc-1 cells; 20 mg/kg intravenous) [% growth]	tumor cell growth in fibers (Panc-1 cells; 40 mg/kg intravenous) [% growth]	tumor growth (DU145 carcinoma; Alzet osmotic pump subcutaneous or intravenous, second cycle on day 30)	tolerability of repeat dose (weight loss) (DU145 carcinoma; repeat dose in mice)	efficacy by route of administration (DU145 carcinoma; subcutaneous versus intravenous)	tumor cell growth in fibers (HT-29 cells; 20 mg/kg intravenous) [%]	tumor cell growth in fibers (HT-29 cells; 40 mg/kg intravenous) [%]
CC(=O)NS(=O)(=O)c1ccc(NC(=S)N2CCN(c3ncnc4[nH]c5cc(C(F)(F)F)c(Cl)cc5c34)CC2)cc1 [Compound 1-1, 4-(6-Chloro-7-trifluoromethyl-9H-pyrimido[4,5-b]indol-4-yl)-piperazine-1-carbothioic acid (4-acetylsulfamoyl-phenyl)-amide]	No noticeable toxicity	effective for inhibiting tumor growth in vivo	9.8	66.6	–	–	–	–	–	–	–	–
COc1cc2[nH]c3ncnc(N4CCN(C(=S)Nc5ccc(S(=O)(=O)Nc6ccc(F)cc6)cc5)CC4)c3c2cc1OC [Compound 2-3, 4-(6,7-dimethoxy-9H-pyrimido[4,5-b]indol-4-yl)-N-(4-(N-(4-fluorophenyl)sulfamoyl)phenyl)piperazine-1-carbothioamide]	–	–	–	–	Brief Cell Cycle Arrest in G2/M. Followed by Apoptosis	58.7	60.9	led to a reduction in tumor growth	well tolerated	more effective when administered subcutaneously than intravenously	53.8	73.4

From US20080207632A1, “PROTEIN KINASE INHIBITORS” (SUPERGEN, INC., priority 2006, published 2008)
